Measured values taken from ChEMBL document CHEMBL3507680, “University of Dundee, Gates Library screen for HepG2 cell viability”.

experiment: Human HepG2 cell viability assay in 384 well format; format: toxicity, cell-based; parameters: dose 125 nL, time 70.5 hour; concentration not given beside the values; conditions: HepG2 cells, read-out: Inhibition

Structure (SMILES) | cytotoxicity at 70.5 h [%]
CC(C)c1noc(CN2CCN(CCO)CC2)n1 | 2.45
COCc1ccccc1CNCc1c(C(C)C)nn(C)c1N(C)C | -0.306
CCOCCN1CCN(Cc2nc(CC(C)C)no2)CC1 | 1.47
COc1cc(CNCCn2cc(C)cn2)cc2c1OCCO2 | 1.39
COc1ncccc1C(=O)N1CCCC(n2ccnc2)C1 (stereo not drawn) | -1.13
Cc1cc(C)n(CC2CN(Cc3cnc(C)s3)CCO2)n1 (stereo not drawn) | 16.8
CCc1noc(CN2CCN(CCO)CC2)n1 | -1.62
O=C(c1cccnc1N1CCCCC1)N1CCCC(n2ccnc2)C1 (stereo not drawn) | 1.48
Cc1ccc(NC2CCN(C(=O)c3c(C)nn(C)c3Cl)CC2)nn1 | -2.32
Cc1ccc(NC2CCN(C(=O)c3c(C)oc(C)c3C)CC2)nn1 | -10.8
CCc1nc(CC(=O)N2CCn3c(CC)nnc3C2)cs1 | -2.3
COCCNC(=O)Nc1ccc(-n2cncn2)c(C(F)(F)F)c1 | -3.51
COc1ccc(C(CNC(=O)Nc2cc(C)nn2C)N(C)C)cc1 (stereo not drawn) | -5.49
CCCNC(=O)CCOc1cccc(F)c1 | -3.12
Cn1cc(Cl)cc1C(=O)N1CCCN(Cc2ccccc2)CC1 | -8.08
O=C(NCCCNc1ccc(C(F)(F)F)cn1)c1ccc2c(c1)OCO2 | -9.51
CSCc1ccc(C(=O)NCCCNc2ccc(C(F)(F)F)cn2)cc1 | -13.3
COCc1ccc(C(=O)NCCCNc2ccc(C(F)(F)F)cn2)cc1 | -11.2
Cn1cc(C#N)c(=O)n(CC(O)c2ccccc2F)c1=O (stereo not drawn) | -13.2
Cc1cc(NC(=O)NCC(O)COc2ccccc2)n(C)n1 (stereo not drawn) | -11.6
N#Cc1cn(C2CC2)c(=O)n(CC(O)c2ccccc2C(F)(F)F)c1=O (stereo not drawn) | -15.2
Cn1cc(Cl)cc1C(=O)N1CCN(CCc2cccs2)CC1 | -4.15
Cc1ccc(C(=O)N2CCCN(Cc3cccs3)CC2)n1C | -7.93
CC(C)(CNC(=O)COc1cccc(F)c1)C(N)=O | -9.07

Structure (SMILES) | cytotoxicity at 70.5 h [%]
Cc1cc(C)c(CNC(=O)N2CCN(c3ccncc3)CC2)c(=O)[nH]1 | -9.77
c1coc(-c2noc(CN3CCc4cncnc4C3)n2)c1 | -7.56
O=C(NCCCOCC1CC1)Nc1ccc(-n2cncn2)c(F)c1 | -13.3
Cc1cnn(CC(=O)N2CCC(Nc3ccc(C)nn3)CC2)c1 | 12.8
Cc1ccsc1CNCC1CCCN1c1cccnn1 (stereo not drawn) | 19.9
COc1cccc(COCC(=O)N2CCCCCC2)c1 | 17.5
CC(C)c1nc(CN2CCN(Cc3ccccn3)CC2)cs1 | -3.18
Cc1csc(CNC(=O)Cc2ccc3c(c2)OCCO3)n1 | -5.71
CCOc1ccc(CC(CNC(=O)c2ccc(C)s2)C(N)=O)cc1 (stereo not drawn) | 4.65
CCc1nnc2n1CCN(CC(=O)Nc1cc(C)on1)C2 | 0.374
Cc1nc2ccccc2nc1CN1CCCC(Cn2cncn2)C1 (stereo not drawn) | -3.51
Cc1ccc(C(=O)Nc2cc(F)ccc2OCC2CCCO2)cn1 (stereo not drawn) | -3.09
Cc1nc2ccccc2nc1CN1CCCCC1Cn1cccn1 (stereo not drawn) | -12.7
CC(C)c1nccn1C1CCCN(C(=O)c2cccc3[nH]ncc23)C1 (stereo not drawn) | -8.02
Cc1cc(C)n(CC2CCCN2Cc2cscn2)n1 (stereo not drawn) | 5.49
Cc1cnc(C(=O)Nc2cc(F)ccc2OCC2CCCO2)cn1 (stereo not drawn) | -6.23
Cc1nc(CN2CCCC(NCC(=O)Nc3cccnc3)C2)no1 (stereo not drawn) | -8.83
Cc1cc(NC(=O)CN2CCn3c(nnc3C3CC3)C2)no1 | -5.22
Cc1nc2ccccc2nc1CN1CCCCC1Cn1cncn1 (stereo not drawn) | -8.21
CCc1nccn1C1CCCN(C(=O)c2ccc3[nH]nnc3c2)C1 (stereo not drawn) | -8.95
CC(C)c1nnc2n1CCN(C(=O)COc1ccc(C(N)=O)cc1)C2 | -6.98
Cn1nc(C(=O)N2CCCC(n3cncn3)C2)ccc1=O (stereo not drawn) | -7.35
Cn1cc(C(=O)N2CCCC(n3cncn3)C2)ccc1=O (stereo not drawn) | -9.74
Cc1cc(NC(=O)CN2CCn3c(C)nnc3C2)no1 | -7.43

Structure (SMILES) | cytotoxicity at 70.5 h [%]
Cc1cnc(CN2CCOC(CN(C)c3cccnn3)C2)cn1 (stereo not drawn) | -0.738
Cc1nc(CN(C)CC2CCCN2c2cccnn2)oc1C (stereo not drawn) | -1.57
Cc1nc(C)c(C(=O)N2CCCN(Cc3cnn(C)c3)CC2)s1 | -3.11
CC(C)S(=O)(=O)C(C)C(=O)NCc1cccc(N2CCCCC2=O)c1 (stereo not drawn) | 13.6
CNS(=O)(=O)c1cccc(CNC(=O)NCC2CCOC2)c1 (stereo not drawn) | -8.46
Cc1noc(C2CCN(C(=O)c3cc(Br)ccc3F)CC2)n1 | -2.54
O=C(c1ccccn1)N1CCCN(Cc2nnc(C3CC3)o2)CC1 | -9.21
CN(Cc1ccco1)C(=O)CN1CCCC1Cn1cccn1 (stereo not drawn) | -3.69
CN(Cc1ccco1)C(=O)CN1CCCCC1Cn1cncn1 (stereo not drawn) | -8.72
O=C(NCc1cccc(N2CCCCC2=O)c1)[C@@H](O)c1ccccc1 | -7.54
COC(=O)N1CCCN(C(=O)c2cccc3cccnc23)CC1 | -7.61
Cc1nnc(N2CCC(NS(C)(=O)=O)CC2)c(C#N)c1C | -5.64
Cc1cc(CN(C)C(=O)NC2CCN(S(C)(=O)=O)CC2)no1 | -9.54
Cc1noc(C2CCCN(C(=O)c3ccc(F)cc3F)C2)n1 (stereo not drawn) | -8.76
CC(O)CN(CC(=O)NC1CCCCC1)c1ccccc1 (stereo not drawn) | 8.65
Cc1ccc2cccc(C(=O)N3CCN(c4cccnn4)CC3)c2n1 | -9.4
CCn1cnnc1C1CCN(C(=O)COc2ccccc2OC)CC1 | 6.54
CN(Cc1coc(-c2ccccc2)n1)CC1CCCN1c1cccnn1 (stereo not drawn) | 4.57
CC(C(=O)Nc1ccnn1C(C)C)N1CCCN(c2nccs2)CC1 (stereo not drawn) | -3.68
CCc1nc(CN2CCCN(C(=O)C3CCC3)CC2)cs1 | 5.44
CCc1nc(CN2CCCN(C(=O)c3occc3C)CC2)cs1 | -7.91
O=C(c1ccccn1)N1CCC(Nc2cccnn2)CC1 | 2.46
c1ccc(-c2nc(CNCCn3cccn3)cs2)cc1 | -4.17
Cc1n[nH]c(=O)c2c(NC(=O)CN3CCC(C)CC3)oc(C)c12 | -10.7

Structure (SMILES) | cytotoxicity at 70.5 h [%]
O=C(NCCn1nc2ccccn2c1=O)c1cc(-c2ccccc2)[nH]n1 | -5.05
CCCc1cc(C(=O)NCCn2nc3ccccn3c2=O)[nH]n1 | -9.65
CC(C)(C)c1cc(C(=O)NCCn2nc3ccccn3c2=O)[nH]n1 | -4.69
Cc1occc1CN(C)Cc1nc2c(cnn2C)c(=O)[nH]1 | -3.6
Cc1ccc(CN(C)Cc2nc3c(cnn3C)c(=O)[nH]2)o1 | -2.01
CC1CN(CC(=O)N2CCCC2)CCN1c1ccc2nncn2n1 (stereo not drawn) | 4.7
Cc1cc(NC(=O)C(C)N2CCN(c3nc(C)cs3)CC2)on1 (stereo not drawn) | -5.64
CCn1cnnc1C1CCCN(C(=O)COc2ccc(Cl)cc2)C1 (stereo not drawn) | -5.18
Cc1cn2nc(N3CCCC3Cn3cncn3)sc2n1 (stereo not drawn) | -3.48
Cc1cc(C(=O)N2CCC(Nc3cccnn3)CC2)no1 | 11.5
CN(Cc1cc(-c2ccccc2)no1)CC1CCCN1c1cccnn1 (stereo not drawn) | -8.09
CC(O)CN1CCN(C(=O)c2cccc3[nH]ncc23)CC1 (stereo not drawn) | -3.67
Cc1nnc(CN(C)CC2CCCN2c2cccnn2)o1 (stereo not drawn) | -3.53
CC(C)(C)c1cn2nc(N3CCCCC3Cn3cncn3)sc2n1 (stereo not drawn) | 4.02
CCC(O)CN1CCN(C(=O)c2cccc3[nH]ncc23)CC1 (stereo not drawn) | -10.6
CSCCC(=O)NS(=O)(=O)c1ccc2c(c1)OCCO2 | -7.91
O=C(CCc1ccc(F)cc1)NS(=O)(=O)c1ccc2c(c1)OCCCO2 | 4.05
O=C(CCSc1ccccc1)NS(=O)(=O)c1ccc2c(c1)OCCO2 | -6.91
CC(c1nc(C2CC2)no1)N1CCN(Cc2cccnc2)CC1 (stereo not drawn) | -6.99
CC(C)n1nc2c(cc1=O)CN(Cc1nnc(C3CC3)o1)CC2 | -3.62
CC(c1nc(C2CC2)no1)N1CCN(Cc2ccc(C#N)cc2)CC1 (stereo not drawn) | 5.31
CCOc1cccc(NS(=O)(=O)c2cc(C(=O)O)cs2)c1 | -11.8
CC1CCN(Cn2nc(-c3ccc(F)cc3)oc2=O)CC1 | 18.6
Cc1cccc(C(=O)NCc2ccc(S(N)(=O)=O)cc2)n1 | -12.2

Structure (SMILES) | cytotoxicity at 70.5 h [%]
CC(NC(=O)NCCNc1ncccn1)c1cccs1 (stereo not drawn) | 1.09
CC1CCCN(CCNC(=O)c2ccn(-c3ccccc3)n2)C1 (stereo not drawn) | -5.27
CC(C)c1cc(NC(=O)c2ccc(C(=O)NC(C)(C)C)cc2)[nH]n1 | -4.05
Cn1ccc(CN2CCC(Oc3ccccc3)CC2)cc1=O | -12
c1cc2n(n1)CC(CNCc1ccc(OC3CCCCC3)nc1)CN2 (stereo not drawn) | 0.985
Cc1noc(C(C)C)c1C(=O)NCc1cc(F)cc(F)c1 | -4.07
O=C(Cc1ccc2c(c1)OCCO2)N1CCCC(n2cccn2)C1 (stereo not drawn) | -19.6
CC(C)c1nc(CC(=O)Nc2nc(CN3CCCCCC3)cs2)cs1 | 16.6
CCc1nc(C2CCCN2Cc2nccn2Cc2ccccc2)no1 (stereo not drawn) | -10.3
CC1CN(CC2CCCCC2)CCN1c1ccc2nncn2n1 (stereo not drawn) | 41.2
Cc1cc(CN(C)C(=O)c2ccc(F)cc2Br)no1 | -9.11
CC(C)(C)c1cn2nc(N3CCCC3Cn3cncn3)sc2n1 (stereo not drawn) | -10.8
Cc1[nH]ncc1C(=O)N1CCN(CC(O)C(C)(C)C)CC1 (stereo not drawn) | -14.9
Cn1nc2c(cc1=O)CN(Cc1nnc(-c3ccco3)o1)CC2 | -3.38
Cn1nc2c(cc1=O)CN(Cc1nnc(C3CC3)o1)CC2 | 19.5
COc1cccc(-c2nc(CNCCn3cccn3)cs2)c1 | -7.96
CC(c1nc(C2CC2)no1)N1CCN(Cc2ccsc2)CC1 (stereo not drawn) | -12.3
COc1ccc(CN2CCN(C(C)c3nc(C4CC4)no3)CC2)cc1 (stereo not drawn) | -6.65
CC1CCCCN1C(=O)CN1CCN(c2ccc3nncn3n2)CC1 (stereo not drawn) | -11.2
O=C(CCSc1ccc(F)cc1)NS(=O)(=O)c1ccc2c(c1)OCCO2 | -6.96
Cc1ccc(CNC2CCCc3c2cnn3Cc2ccccc2)s1 (stereo not drawn) | -8.41
Cn1ncc2c1CCCC2NCc1ccc(Br)s1 (stereo not drawn) | 3.28
